Assay results: ChEMBL document CHEMBL4699582, “Discovery of OATD-01, a First-in-Class Chitinase Inhibitor as Potential New Therapeutics for Idiopathic Pulmonary Fibrosis” (J Med Chem, 2020)
Activity calls are given as the source filed them. No cut-off for these calls is given here.

Assays:
[1] = Oral bioavailability in Beagle dog at 10 mg/kg, administered as single dose by LC-MS/MS analysis; type: ADME, organism-based, Canis lupus familiaris; details: in vivo
Cytochrome P450 2C8 = Cytochrome P450 2C8 (Homo sapiens, UniProt P10632); assay: Inhibition of CYP2C8 (unknown origin); type: ADME
[2] = Clearance (0 to 24 hrs) in Sprague-Dawley rat at 2 mg/kg, iv administered as single bolus dose by LC-MS/MS analysis; type: ADME, organism-based; details: in vivo
[3] = Tmax in Balb/c mouse at 10 mg/kg, po administered as single dose by LC-MS/MS analysis; type: ADME, organism-based; details: in vivo
[4] = Elimination half-life in Beagle dog at 3 mg/kg, iv administered as single bolus dose by LC-MS/MS analysis; type: ADME, organism-based, Canis lupus familiaris; details: in vivo, read-out: beta t1/2 (converted)
[5] = target: Ileal sodium/bile acid cotransporter (Homo sapiens, UniProt Q12908); assay: Inhibition of ASBT (unknown origin) at 1 to 10 uM; details: dose 1-10 µM
[6] = Initial plasma concentration in Balb/c mouse at 3 mg/kg, iv administered as single bolus dose by LC-MS/MS analysis; type: ADME, organism-based
[7] = target: Voltage-gated inwardly rectifying potassium channel KCNH2 (Homo sapiens, UniProt Q12809); assay: Inhibition of tracer red binding to human ERG expressed in HEK293 cell membranes measured after 2 to 6 hrs by fluorescence polarization assay
Cytochrome P450 2D6 = Cytochrome P450 2D6 (Homo sapiens, UniProt P10635); assay: Inhibition of CYP2D6 (unknown origin); type: ADME
[8] = Tmax in Beagle dog at 10 mg/kg, po administered as single dose by LC-MS/MS analysis; type: ADME, organism-based, Canis lupus familiaris; details: in vivo
[9] = Tmax in Sprague-Dawley rat at 6 mg/kg, po administered as single dose by LC-MS/MS analysis; type: ADME, organism-based; details: in vivo
[10] = Dose normalized Cmax in Beagle dog at 3 mg/kg, iv administered as single bolus dose by LC-MS/MS analysis; type: ADME, organism-based, Canis lupus familiaris; details: in vivo
[11] = Volume of distribution at steady state in Sprague-Dawley rat at 2 mg/kg, iv administered as single bolus dose measured upto 24 hrs by LC-MS/MS analysis; type: ADME, organism-based; details: in vivo, read-out: Vdss
[12] = Clearance (0 to infinity) in Sprague-Dawley rat at 2 mg/kg, iv administered as single bolus dose by LC-MS/MS analysis; type: ADME, organism-based; details: in vivo
[13] = Dose normalized AUC (0 to 24 hrs) in Sprague-Dawley rat at 6 mg/kg, po administered as single dose by LC-MS/MS analysis; type: ADME, organism-based; details: in vivo
[14] = Drug uptake in C57BL/6N mouse lung at 30 mg/kg, po qd administered via gavage measured 24 hrs post dose; type: ADME, organism-based; details: in vivo
Cytochrome P450 1A2 = Cytochrome P450 1A2 (Homo sapiens, UniProt P05177); assay: Inhibition of CYP1A2 (unknown origin); type: ADME
Cytochrome P450 2B6 = Cytochrome P450 2B6 (Homo sapiens, UniProt P20813); assay: Inhibition of CYP2B6 (unknown origin); type: ADME
[15] = Drug uptake in C57BL/6N mouse plasma at 30 mg/kg, po bid administered via gavage measured 24 hrs post dose; type: ADME, organism-based; details: in vivo
[16] = Elimination half-life in Beagle dog at 10 mg/kg, po administered as single dose by LC-MS/MS analysis; type: ADME, organism-based, Canis lupus familiaris; details: in vivo, read-out: beta t1/2 (converted)
[17] = Oral bioavailability in Balb/c mouse at 10 mg/kg, administered as single dose by LC-MS/MS analysis; type: ADME, organism-based; details: in vivo
[18] = target: Solute carrier family 22 member 1 (Homo sapiens, UniProt O15245); assay: Inhibition of OCT1 (unknown origin) at 1 to 10 uM; details: dose 1-10 µM
[19] = Clearance (0 to infinity) in Balb/c mouse at 3 mg/kg, iv administered as single bolus dose by LC-MS/MS analysis; type: ADME, organism-based; details: in vivo
[20] = AUC (0 to 24 hrs) in Beagle dog at 3 mg/kg, iv administered as single bolus dose by LC-MS/MS analysis; type: ADME, organism-based, Canis lupus familiaris; set-up: time < 24 hr, route intravenous, dose 3 mg/kg; details: in vivo
[21] = AUC (0 to 24 hrs) in Balb/c mouse at 3 mg/kg, iv administered as single bolus dose by LC-MS/MS analysis; type: ADME, organism-based; set-up: time < 24 hr, route intravenous, dose 3 mg/kg; details: in vivo
Cytochrome P450 3A4 = Cytochrome P450 3A4 (Homo sapiens, UniProt P08684); assay: Inhibition of CYP3A4 (unknown origin); type: ADME
[22] = Cmax in Sprague-Dawley rat at 6 mg/kg, po administered as single dose by LC-MS/MS analysis; type: ADME, organism-based; set-up: route oral, dose 6 mg/kg; details: in vivo
[23] = Dose normalized Cmax in Balb/c mouse at 10 mg/kg, po administered as single dose by LC-MS/MS analysis; type: ADME, organism-based; details: in vivo
Mus musculus = species on record: Mus musculus; details: C57BL/6N, dose 30.0 mg/kg
[24] = target: Organic anion transporter 3 (Homo sapiens, UniProt Q8TCC7); assay: Inhibition of OAT3 (unknown origin) at 1 to 10 uM; details: dose 1-10 µM
Cytochrome P450 2C9 = Cytochrome P450 2C9 (Homo sapiens, UniProt P11712); assay: Inhibition of CYP2C9 (unknown origin); type: ADME
Chain of Cytochrome P450 2C9 (P11712 whole entry): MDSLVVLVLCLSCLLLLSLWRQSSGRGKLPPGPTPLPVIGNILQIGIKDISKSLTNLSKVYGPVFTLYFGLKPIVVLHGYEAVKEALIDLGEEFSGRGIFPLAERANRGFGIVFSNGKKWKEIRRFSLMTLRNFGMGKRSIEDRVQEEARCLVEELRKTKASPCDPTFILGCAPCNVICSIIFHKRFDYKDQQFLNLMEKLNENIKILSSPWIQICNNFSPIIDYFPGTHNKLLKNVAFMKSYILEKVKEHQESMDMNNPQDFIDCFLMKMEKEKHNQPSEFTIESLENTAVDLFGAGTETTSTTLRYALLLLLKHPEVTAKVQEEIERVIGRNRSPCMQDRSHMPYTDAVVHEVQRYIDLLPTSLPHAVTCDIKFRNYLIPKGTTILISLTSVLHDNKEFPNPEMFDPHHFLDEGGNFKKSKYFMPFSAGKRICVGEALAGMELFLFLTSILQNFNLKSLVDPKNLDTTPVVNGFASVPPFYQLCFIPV

Chain of Ileal sodium/bile acid cotransporter (Q12908 whole entry): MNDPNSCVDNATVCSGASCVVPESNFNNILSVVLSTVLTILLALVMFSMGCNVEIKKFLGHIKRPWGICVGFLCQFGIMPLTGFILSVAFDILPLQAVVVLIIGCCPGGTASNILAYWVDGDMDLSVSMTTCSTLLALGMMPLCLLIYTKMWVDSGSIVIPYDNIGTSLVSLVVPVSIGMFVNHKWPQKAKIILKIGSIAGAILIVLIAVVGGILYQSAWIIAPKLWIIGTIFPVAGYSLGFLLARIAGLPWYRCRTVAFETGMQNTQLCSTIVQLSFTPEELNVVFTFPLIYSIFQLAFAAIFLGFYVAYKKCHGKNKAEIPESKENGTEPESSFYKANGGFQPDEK
Chain of Cytochrome P450 3A4 (P08684 whole entry): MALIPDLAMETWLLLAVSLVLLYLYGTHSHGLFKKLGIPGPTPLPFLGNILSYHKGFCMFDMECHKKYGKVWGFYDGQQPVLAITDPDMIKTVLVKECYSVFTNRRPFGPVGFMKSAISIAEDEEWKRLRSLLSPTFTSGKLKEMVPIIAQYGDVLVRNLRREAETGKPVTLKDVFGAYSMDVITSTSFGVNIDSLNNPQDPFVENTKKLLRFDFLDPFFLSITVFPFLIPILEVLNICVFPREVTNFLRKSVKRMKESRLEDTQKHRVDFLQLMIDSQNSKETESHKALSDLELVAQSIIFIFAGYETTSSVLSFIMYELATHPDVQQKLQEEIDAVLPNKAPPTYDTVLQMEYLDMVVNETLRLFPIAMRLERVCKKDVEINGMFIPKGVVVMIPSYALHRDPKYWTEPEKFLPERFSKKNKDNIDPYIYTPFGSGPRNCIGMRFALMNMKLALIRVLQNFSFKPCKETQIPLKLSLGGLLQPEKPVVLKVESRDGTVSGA
Chain of Cytochrome P450 2B6 (P20813 whole entry): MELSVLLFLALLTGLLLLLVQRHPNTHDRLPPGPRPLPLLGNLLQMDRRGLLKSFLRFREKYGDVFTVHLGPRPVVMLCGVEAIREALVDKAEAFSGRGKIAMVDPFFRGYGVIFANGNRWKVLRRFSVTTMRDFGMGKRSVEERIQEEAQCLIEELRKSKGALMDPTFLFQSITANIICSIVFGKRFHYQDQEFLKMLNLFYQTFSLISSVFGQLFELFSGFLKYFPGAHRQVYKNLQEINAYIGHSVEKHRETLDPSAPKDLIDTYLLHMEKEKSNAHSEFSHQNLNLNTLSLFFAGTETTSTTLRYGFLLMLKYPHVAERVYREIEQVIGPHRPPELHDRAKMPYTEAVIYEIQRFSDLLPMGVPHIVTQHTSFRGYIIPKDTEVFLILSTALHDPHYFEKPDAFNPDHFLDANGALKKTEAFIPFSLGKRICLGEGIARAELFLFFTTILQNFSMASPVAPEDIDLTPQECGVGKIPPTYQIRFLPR
Chain of Solute carrier family 22 member 1 (O15245 whole entry): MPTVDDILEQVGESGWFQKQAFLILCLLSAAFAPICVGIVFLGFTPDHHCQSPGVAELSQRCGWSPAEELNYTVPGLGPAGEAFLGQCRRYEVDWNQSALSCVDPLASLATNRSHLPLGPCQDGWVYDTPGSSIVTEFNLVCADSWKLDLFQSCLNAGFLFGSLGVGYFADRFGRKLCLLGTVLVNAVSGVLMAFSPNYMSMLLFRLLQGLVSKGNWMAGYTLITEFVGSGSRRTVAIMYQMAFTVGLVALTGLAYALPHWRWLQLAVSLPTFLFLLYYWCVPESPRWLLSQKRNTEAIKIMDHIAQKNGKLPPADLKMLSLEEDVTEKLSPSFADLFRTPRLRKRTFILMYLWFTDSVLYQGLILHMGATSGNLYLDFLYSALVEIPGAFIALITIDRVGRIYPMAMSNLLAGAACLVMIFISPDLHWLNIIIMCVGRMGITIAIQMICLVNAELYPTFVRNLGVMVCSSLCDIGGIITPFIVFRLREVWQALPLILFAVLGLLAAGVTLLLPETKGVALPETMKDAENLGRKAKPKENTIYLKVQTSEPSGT
Chain of Voltage-gated inwardly rectifying potassium channel KCNH2 (Q12809 whole entry): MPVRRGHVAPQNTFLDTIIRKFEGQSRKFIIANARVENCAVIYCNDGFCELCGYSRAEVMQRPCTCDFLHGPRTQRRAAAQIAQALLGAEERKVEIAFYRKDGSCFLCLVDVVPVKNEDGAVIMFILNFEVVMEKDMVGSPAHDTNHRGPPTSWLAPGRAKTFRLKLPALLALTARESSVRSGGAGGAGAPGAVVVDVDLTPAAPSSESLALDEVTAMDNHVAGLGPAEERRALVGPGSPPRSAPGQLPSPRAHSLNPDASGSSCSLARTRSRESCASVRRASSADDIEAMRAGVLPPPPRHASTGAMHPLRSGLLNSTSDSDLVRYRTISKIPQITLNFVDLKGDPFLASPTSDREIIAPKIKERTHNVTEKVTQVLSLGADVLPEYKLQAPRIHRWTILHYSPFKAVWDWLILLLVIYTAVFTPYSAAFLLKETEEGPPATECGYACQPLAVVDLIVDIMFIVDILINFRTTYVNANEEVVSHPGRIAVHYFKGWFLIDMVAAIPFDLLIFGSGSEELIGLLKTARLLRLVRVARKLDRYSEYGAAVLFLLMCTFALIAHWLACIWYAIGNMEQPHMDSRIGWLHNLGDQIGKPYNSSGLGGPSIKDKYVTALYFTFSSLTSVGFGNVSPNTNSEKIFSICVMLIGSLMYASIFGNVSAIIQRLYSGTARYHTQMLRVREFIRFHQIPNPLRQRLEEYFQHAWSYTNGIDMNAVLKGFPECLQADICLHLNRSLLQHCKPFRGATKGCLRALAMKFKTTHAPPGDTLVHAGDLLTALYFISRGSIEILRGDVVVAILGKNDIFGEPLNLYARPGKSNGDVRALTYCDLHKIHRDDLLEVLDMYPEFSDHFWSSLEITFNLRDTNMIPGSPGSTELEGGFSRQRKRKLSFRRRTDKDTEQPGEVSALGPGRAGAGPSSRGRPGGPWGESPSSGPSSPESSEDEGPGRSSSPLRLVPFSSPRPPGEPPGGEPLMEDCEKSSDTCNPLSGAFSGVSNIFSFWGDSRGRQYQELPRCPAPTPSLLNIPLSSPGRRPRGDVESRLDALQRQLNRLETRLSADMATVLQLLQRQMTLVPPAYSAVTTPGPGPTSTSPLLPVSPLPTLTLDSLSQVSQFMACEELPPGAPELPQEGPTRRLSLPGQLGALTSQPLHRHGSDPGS
Chain of Organic anion transporter 3 (Q8TCC7 whole entry): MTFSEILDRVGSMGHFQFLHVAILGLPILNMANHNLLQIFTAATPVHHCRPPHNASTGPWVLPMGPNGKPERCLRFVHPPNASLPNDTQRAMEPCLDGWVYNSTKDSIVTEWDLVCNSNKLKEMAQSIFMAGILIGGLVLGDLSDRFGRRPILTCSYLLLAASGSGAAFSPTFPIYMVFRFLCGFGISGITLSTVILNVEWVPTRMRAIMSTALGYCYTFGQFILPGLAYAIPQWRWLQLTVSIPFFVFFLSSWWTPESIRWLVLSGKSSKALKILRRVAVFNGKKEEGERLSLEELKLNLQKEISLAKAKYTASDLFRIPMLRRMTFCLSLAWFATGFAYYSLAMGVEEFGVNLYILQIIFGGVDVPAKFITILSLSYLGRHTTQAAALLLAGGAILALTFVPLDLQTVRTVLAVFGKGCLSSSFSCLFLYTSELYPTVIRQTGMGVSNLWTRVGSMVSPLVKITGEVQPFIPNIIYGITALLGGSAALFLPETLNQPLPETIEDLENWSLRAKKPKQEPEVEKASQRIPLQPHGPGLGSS
Chain of Cytochrome P450 2D6 (P10635 whole entry): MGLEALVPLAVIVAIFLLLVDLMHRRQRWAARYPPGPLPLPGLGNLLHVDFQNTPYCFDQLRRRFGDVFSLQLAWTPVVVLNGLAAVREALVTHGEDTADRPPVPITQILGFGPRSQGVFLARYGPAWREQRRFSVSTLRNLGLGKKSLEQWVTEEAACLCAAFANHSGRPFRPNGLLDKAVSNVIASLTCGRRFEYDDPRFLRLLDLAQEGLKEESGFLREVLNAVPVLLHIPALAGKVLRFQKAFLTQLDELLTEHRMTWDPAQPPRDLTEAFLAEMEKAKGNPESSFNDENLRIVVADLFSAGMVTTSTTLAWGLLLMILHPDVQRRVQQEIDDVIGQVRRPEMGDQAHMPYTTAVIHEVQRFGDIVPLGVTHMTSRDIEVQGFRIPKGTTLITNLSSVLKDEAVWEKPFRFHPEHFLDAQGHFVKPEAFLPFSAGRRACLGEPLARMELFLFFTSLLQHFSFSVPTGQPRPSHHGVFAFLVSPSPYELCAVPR

bioavailability [1]: 91.4%
inhibition (INH) (Cytochrome P450 2C8): Not Active
clearance [2]: 5.67 mL/min/kg
Tmax [3]: 2 h
half-life [4]: 21.9 h
inhibition (INH) [5]: Not Active
C0 [6]: 3970 ng/mL
inhibition (INH) (Cytochrome P450 2D6): Not Active
Tmax [8]: 0.5 h
Tmax [9]: 2 h
Cmax/dose [10]: 0.82 kg.mg/L.mL
Vd [11]: 1.82 L/kg
clearance [12]: 5.67 mL/min/kg
AUC/dose [13]: 3.38 kg·mg·h/L/mg
Drug uptake [14]: Active
inhibition (INH) (Cytochrome P450 1A2): Not Active
inhibition (INH) (Cytochrome P450 2B6): Not Active
Drug uptake [15]: Active
half-life [16]: 22.9 h
bioavailability [17]: 77.4%
inhibition (INH) [18]: Not Active
clearance [19]: 5.83 mL/min/kg
AUC(0-t) at 24 h [20]: 31000 ng·h/mL
AUC(0-t) at 24 h [21]: 8600 ng·h/mL
inhibition (INH) (Cytochrome P450 3A4): Not Active
Cmax [22]: 2210 ng/mL
Cmax/dose [23]: 0.34 kg.mg/L.mL
inhibition (INH) [24]: Not Active
inhibition (INH) (Cytochrome P450 2C9): Not Active
SMILES: C[C@H]1CN(C2CCN(c3nc(N)n[nH]3)CC2)[C@@H](Cc2ccc(Cl)cc2)CO1 [5-(4-((2S,5S)-5-(4-CHLOROBENZYL)-2-METHYLMORPHOLINO)PIPERIDIN-1-YL)-1H-1,2,4-TRIAZOL-3-AMINE]
IC50 [7]: 23 µM
inhibition (Mus musculus): Active
